From patent publication EP4385495A1, “NANOSYSTEMS FOR THE ENCAPSULATION OF THERAPEUTIC AGENTS” (National Technical University of Athens, priority 2022, dated 2024)

Columns and labels:
[1] = system: experimental animal model of osteoarthritis (OA); assay: Knee diameter (digital caliper) and gross observations in collagenase-induced osteoarthritis rat model; format: in vivo, Wistar rats; conditions: for Right knee diameter: collagenase-injected knee; for Left knee diameter: untreated control knee
Experimental: (§1) In order to understand the anti-inflammatory and antioxidant potential of the nanoparticles of the invention in vivo an experimental animal model of osteoarthritis (OA) was established. The OA lesions were caused by matrix degradation of articular cartilage using enzymatic means, such as collagenase type-II. Following the induction of osteoarthritis, the studied nanoparticles were administered for 8 weeks in which period the morphological and behavioral changes were measured and finally histological analysis of the articular cartilage samples concluded the in vivo study.
(§2) Rats were anesthetized with chloral hydrate. The right knee joints of Group I were injected with normal saline solution and served as a control. Animals from the groups II, III, IV, V, VI, VII were injected with collagenase type II (Clostridium histolyticum). Collagenase (125 collagen digestion unit/mg) was dissolved in saline, and it was injected intra-articularly into the right knee joint twice on days 1 and 4 of the experiment (Al-Saffar, F., H. Ganabadi and S. Fakurazi. Collagenase and sodium iodoacetate-induced experimental osteoarthritis model in Sprague dawley rats. Asian J. Sci. Res. 2: 1-13, 2009). The left knees of all animals were left untreated as a control.
(§3) Changes in body weight and knee diameter were measured on the 1st, 4th,11th,21st,31st,41st,51st, 61st, 71st day before every injection. Knee diameter was measured using a digital caliper. […] A change in body weight is also measured as one of the parameters to assess the course of the disease in the OA animal models.

[2] = Body weight in collagenase-induced osteoarthritis rat model; format: in vivo, Wistar rats
Experimental: as §1, §2, §3

[3] = system: experimental animal model of osteoarthritis (OA); assay: von Frey mechanical allodynia test in osteoarthritis rat model; format: in vivo, Wistar rats; conditions: for Paw Withdrawal Threshold (%): right paw/(right paw + left paw)*100
Experimental: Healthy adult male Wistar rats (150-200 g) were used for the study, with water and food ad libitum, at a constant temperature of 22°C and controlled lighting (12 h light/12 h dark cycle). […] As far as the dispersion procedure of the injectables is concerned, all the natural compounds were dissolved in saline solution, whereas the studied nanoparticles were mechanically grinded in a mortar and pestle set with saline solution and Tween 20 (2% w/v) and heated at 36 °C before each treatment. There were six treatments administered every 10 days. At the end of the experiment rats were euthanized and both knees were collected for histological analysis. Rats were anesthetized with chloral hydrate. The right knee joints of Group I were injected with normal saline solution and served as a control. Animals from the groups II, III, IV, V, VI, VII were injected with collagenase type II (Clostridium histolyticum). Collagenase (125 collagen digestion unit/mg) was dissolved in saline, and it was injected intra-articularly into the right knee joint twice on days 1 and 4 of the experiment ([…] and S. Fakurazi. Collagenase and sodium iodoacetate-induced experimental osteoarthritis model in Sprague dawley rats. Asian J. Sci. Res. 2: 1-13, 2009). The left knees of all animals were left untreated as a control. For the evaluation of the effectiveness and time of release of the encapsulated compounds, all animals were subjected to a series of behavioral testing in addition to the measurements of body weight and knees diameter change. The experimental protocol of the present study followed the combination of three different behavioral tests, which are von Frey mechanical allodynia test, grid walking and slope walking test. Behavioral tests are performed in three phases, at the beginning before the start of treatment, in the middle of treatment (approximately 35-40 days) and at the end (after the 70th day). Mechanical allodynia was tested by the von Frey method which detects pain threshold as the paw withdrawal response. For the testing, rats were placed into plastic chambers that allow access to the plantar surface of the hind paws. […] In Table 15 below, the nociceptive threshold is defined as: nociceptive threshold (%) = ([…])/((nociceptive; threshold on right paw + nociceptive threshold of left paw))*100 [formula] Table 13: von Frey-paw withdrawal threshold (g)

[4] = system: experimental animal model of osteoarthritis (OA); assay: Slope walking test in osteoarthritis rat model; format: in vivo, Wistar rats
Experimental: as §2
Walking on an inclined plane was used for the clinical assessment of motor function in rats after induction of OA. The method consists of placing the animal on an inclined plane and then measuring the time (seconds) needed for the animals to go up the walking tray.

[5] = system: experimental animal model of osteoarthritis (OA); assay: Grid-walking test in osteoarthritis rat model; format: in vivo, Wistar rats
Experimental: as §2
In this test the rats were allowed to explore freely for 4 minutes in a wire grid and when one of the limbs fell below the grid surface during free walking, the observer counted the number of foot-fault errors (footslips) (Starkey, M. L., Barritt, A. W., Yip, P. K., Davies, M., Hamers, F. P. T., McMahon, S. B., & Bradbury, E. J. (2005). Assessing behavioural function following a pyramidotomy lesion of the corticospinal tract in adult mice. Experimental Neurology, 195(2), 524-539. doi:10.1016/j.expneurol.2005.0).

CCK-8 viability assay = format: cell-based; conditions: human, primary human chondrocytes; 1 µM, 72h; positive control set to 100; read-out: Mean % relative viability
Experimental: b) The viability of human primary chondrocytes was evaluated following incubation with increasing concentrations of either the pure Naringin (S1) or the nanosystems (Samples S2 and S3) at 2-10-50µM of encapsulated Naringin (1:5 serial dilutions) for 72h (higher concentrations were not used because the nanosystems become insoluble and aggregates sediment on the cell monolayer). For S2 this corresponded to 6,4 µg/ml (for 2 µM of Naringin), 32 µg/ml (for 10 µM of Naringin) and 158 µg/ml (for 50 µM of Naringin) respectively, of total NP concentration. For S3 (CS[PLA[NAR]]) the total NP concentrations to provide the same µM of encapsulated Naringin were 14,4 / 72 / 360 µg/m). As control for the nanosystems, a blank PLA nanoparticle preparation coated with chitosan (S4) was used, at the same µg/ml polymer concentration like the ones used to achieve the 2-10-50µM range for Naringin (the difference being that the blank contains no Naringin). Finally, the blank S4 was used at the 14,4/72/360 µg/ml concentration range (1:5 serial dilutions). Following incubation, the CCK-8 viability kit was used according to manufacturer's instructions (Sigma, 96992-500TESTS-F). Macroscopical and microscopical observation confirmed the proper complete solubility and dispersion of the Nanoparticles. Importantly, healthy cell morphology was observed (spindle-like attached cells with several processes) with concomitant absence of undissolved material.
Table 5. Effect of the natural products and the nanosystems on the relative cell viability of primary human chondrocytes. Measurements obtained using the CCK-8 viability kit. Values normalized to positive control (PC; set to 100; arbitrary unit). Samples' coding: S1= pure Naringin, S2=Naringin encapsulated in PLA nanoparticles [PLA[NAR]], S3=Naringin encapsulated in PLA nanoparticles coated with chitosan CS[PLA[NAR]], and S4=Blank PLA nanoparticles coated with chitosan, CS(PLA[---]].

RAW264.7 cells = assay: MTT cell viability assay; format: cell-based, mouse; conditions: 24h
Text: The MTT (3-[4,5-dimethylthiazol-2-yl]-2,5 diphenyl tetrazolium bromide) assay is based on the ability of viable cells with active metabolism to convert the yellow MTT to a purple formazan product, which determines mitochondrial activity. The MTT formazan product agglomerates as an insoluble residuum within the cells, which can be solubilized (in this protocol with DMSO) for homogeneous measurement. Thus, any increase or decrease in the number of viable cells can be detected by measuring the formazan concentration reflected in the optical density (OD) measurement at 540 nm with a reference absorption of 720 nm. This assay is broadly used to measure the in vitro cytotoxic effects of drugs on cell lines or primary cells. For the experimental procedure a standard solution of MTT 1mg/mL in PBS was prepared which after filtration ([…] filter (Millipore, Carrigtwohill, Ireland)) was stored in the dark (4-8 °C) until use. In brief, RAW 264.7 cells were seeded in a 96-well plate at a density of 30.000 cells/ in 100 µL of medium per well. […] This was followed by incubation for 24 h, 48 h and 72 h. At the end of the incubation 10 µL of MTT was added to each well followed by incubation for 4 hours, for the formation of the formazan crystals. The formazan crystals were then dissolved by adding DMSO and stirring lightly for 30 min, after which the absorbance was measured in a plate reader at 540 nm with a reference absorbance of 720 nm. […] Table 4: % cell viability after treatment of RAW264.7 cells with the samples

[6] = 70 days (end of experimental protocol)
[7] = 1st injection CO/saline (before treatment)
[8] = 2nd injection CO/saline (before treatment)

CC(C)Cc1ccc(C(C)C(=O)O)cc1 (centres unmarked) [IBUPROFEN, ibuprofen]
% Changes in Left knee diameter ([1]; 11 days (before treatment)): 0,02%
% Changes in Right knee diameter ([1]; 11 days (before treatment)): 0,91%
% Changes in Left knee diameter [1, 6]: 0,44%
% Changes in Right knee diameter [1, 6]: 0,37%
Right knee diameter [1, 7]: 0,8128 cm
Right knee diameter ([1]; 1st treatment, 10 mg/kg (S1, ibuprofen i.p.; nanoparticles i.a.)): 0,8202 cm
Right knee diameter [1, 8]: 0,8192 cm
Right knee diameter ([1]; 3rd treatment): 0,8172 cm
Right knee diameter ([1]; 4th treatment): 0,8174 cm
Right knee diameter ([1]; 5th treatment): 0,817 cm
Right knee diameter ([1]; 6th treatment): 0,816 cm
Right knee diameter ([1]; final): 0,8158 cm
Left knee diameter ([1]; 1st injection CO/saline): 0,8158 cm
Left knee diameter ([1]; 1st treatment): 0,816 cm
Left knee diameter ([1]; 2nd injection CO/saline): 0,816 cm
Left knee diameter ([1]; 4th treatment): 0,8184 cm
Left knee diameter ([1]; final): 0,8194 cm
Body Weight (BW) [2, 7]: 234 g
Body Weight (BW) ([2]; 1st treatment, 10 mg/kg (S1, ibuprofen i.p.; nanoparticles i.a.), every 10 days): 245 g
Body Weight (BW) [2, 8]: 230 g
Body Weight (BW) ([2]; 2nd treatment, 10 mg/kg (S1, ibuprofen i.p.; nanoparticles i.a.)): 276 g
Body Weight (BW) ([2]; 3rd treatment, 10 mg/kg (S1, ibuprofen i.p.; nanoparticles i.a.)): 296 g
Body Weight (BW) ([2]; 4th treatment, 10 mg/kg (S1, ibuprofen i.p.; nanoparticles i.a.)): 303 g
Body Weight (BW) ([2]; 5th treatment, 10 mg/kg (S1, ibuprofen i.p.; nanoparticles i.a.)): 308 g
Body Weight (BW) ([2]; 6th treatment, 10 mg/kg (S1, ibuprofen i.p.; nanoparticles i.a.)): 313 g
% Changes in Body Weight (BW) ([2]; 11 days (before treatment)): 4,7%
% Changes in Body Weight (BW) [2, 6]: 40,2%
Body Weight (BW) ([2]; final, 10 mg/kg (S1, ibuprofen i.p.; nanoparticles i.a.)): 328 g
von Frey-paw withdrawal threshold ([3]; 11 days (before treatment)): 59,78 g
von Frey-paw withdrawal threshold ([3]; 70 days (end of experimental protocol), 10 mg/kg (S1, ibuprofen i.p.; nanoparticles i.a.)): 83,8 g
von Frey-paw withdrawal threshold ([3]; left-control paw): 93,9 g
Paw Withdrawal Threshold (%) ([3]; 11 days (before treatment)): 38,90%
Paw Withdrawal Threshold (%) [3, 6]: 45,44%
Slope Walking ([4]; 11 days (before treatment)): 9,8 sec
Slope Walking [4, 6]: 8,9 sec
Foot fault in grid-walk test (4 min) ([5]; 11 days left paw): 1,4
Foot fault in grid-walk test (4 min) ([5]; 11 days right paw): 2,8
Foot fault in grid-walk test (4 min) ([5]; 40 days left paw): 1,8
Foot fault in grid-walk test (4 min) ([5]; 40 days right paw): 1,2
Foot fault in grid-walk test (4 min) ([5]; 70 days left paw): 1
Foot fault in grid-walk test (4 min) ([5]; 70 days right paw): 1
viability at 72 h, 1 µM (CCK-8 viability assay): 100%

COc1cc(C2Oc3cc([C@H]4Oc5cc(O)cc(O)c5C(=O)[C@@H]4O)ccc3OC2CO)ccc1O (some centres unmarked) [PC (Silibinin), silibinin]
% cell viability (RAW264.7 cells; 25 µM): 30%
% cell viability (RAW264.7 cells; 50 µM): 20%
